Data taken from ChEMBL document CHEMBL3044783, “Effects of pyrrolizidine alkaloids on the performance of plant-parasitic and free-living nematodes” (Pest Manag Sci, 2009).
Converted amounts (≈) assume the structure as drawn. The source made the active and inactive calls. No cut-off for these calls is given here.

Columns and labels:
Rhabditis sp. [1] = assay: Nematicidal activity against juvenile stage of Rhabditis sp. assessed as inhibition of mobility after 168 hr; assay type: functional
Meloidogyne incognita [2] = assay: Nematicidal activity against juvenile stage of Meloidogyne incognita (root-knot nematode) assessed as inhibition of mobility incubated for 168 hr followed by compound wash out measured after 24 hr; assay type: functional
Pratylenchus penetrans [3] = assay: Nematicidal activity against juvenile stage of Pratylenchus penetrans assessed as inhibition of mobility incubated for 168 hr followed by compound wash out measured after 24 hr; assay type: functional
Rhabditis sp. [4] = assay: Nematicidal activity against juvenile stage of Rhabditis sp. assessed as reduction of nematode development at 1 mg/mL after 72 hr by stereomicroscopic analysis (reference value: 62%); assay type: functional; set-up: scale not given: the % may be the effect or the level left
Heterodera schachtii [5] = assay: Nematicidal activity against juvenile stage of Heterodera schachtii assessed as inhibition of mobility after 20 hr; assay type: functional
Rhabditis sp. [6] = assay: Nematicidal activity against juvenile stage of Rhabditis sp. assessed as reduction of fecundity at 0.1 mg/mL after 72 hr by stereomicroscopic analysis relative to untreated control; assay type: functional, organism-based
Rhabditis sp. [7] = assay: Nematicidal activity against juvenile stage of Rhabditis sp. assessed as reduction of nematode development at 0.01 mg/mL after 72 hr by stereomicroscopic analysis (reference value: 62%); assay type: functional; set-up: scale not given: the % may be the effect or the level left
Rhabditis sp. [8] = assay: Nematicidal activity against juvenile stage of Rhabditis sp. assessed as reduction of nematode development at 0.1 mg/mL after 72 hr by stereomicroscopic analysis (reference value: 62%); assay type: functional; set-up: scale not given: the % may be the effect or the level left
Meloidogyne incognita [9] = assay: Nematicidal activity against juvenile stage of Meloidogyne incognita (root-knot nematode) assessed as inhibition of mobility after 20 hr; assay type: functional
Heterodera schachtii [10] = assay: Nematicidal activity against juvenile stage of Heterodera schachtii assessed as inhibition of mobility incubated for 168 hr followed by compound wash out measured after 24 hr; assay type: functional
Pratylenchus penetrans [11] = assay: Nematicidal activity against juvenile stage of Pratylenchus penetrans assessed as inhibition of mobility after 20 hr; assay type: functional
Meloidogyne incognita [12] = assay: Nematicidal activity against juvenile stage of Meloidogyne incognita (root-knot nematode) assessed as inhibition of mobility after 168 hr; assay type: functional
Rhabditis sp. [13] = assay: Nematicidal activity against juvenile stage of Rhabditis sp. assessed as inhibition of mobility after 20 hr; assay type: functional, organism-based
Pratylenchus penetrans [14] = assay: Nematicidal activity against juvenile stage of Pratylenchus penetrans assessed as inhibition of mobility after 168 hr; assay type: functional
Heterodera schachtii [15] = assay: Nematicidal activity against juvenile stage of Heterodera schachtii assessed as inhibition of mobility after 168 hr; assay type: functional
Rhabditis sp. [16] = assay: Nematicidal activity against juvenile stage of Rhabditis sp. assessed as reduction of fecundity at 0.01 mg/mL after 72 hr by stereomicroscopic analysis relative to untreated control; assay type: functional, organism-based

## CO[C@H](C)[C@](O)(C(=O)OCC1=CC[N+]2([O-])CC[C@H](O)[C@@H]12)C(C)C (some centres not stated) [HELIOTRINE N-OXIDE]
Rhabditis sp. [1]
  MIC50: inactive
Meloidogyne incognita [2]
  MIC50: 1700 µg/mL (≈ 5.16 mM)
Pratylenchus penetrans [3]
  MIC50: inactive
Rhabditis sp. [4]
  Activity: 0%
Heterodera schachtii [5]
  MIC50: inactive
Rhabditis sp. [6]
  Activity: Active
Rhabditis sp. [7]
  Activity: 68%
Rhabditis sp. [8]
  Activity: 55%
Meloidogyne incognita [9]
  MIC50: 4.8 mg/mL (≈ 14.6 mM)
Heterodera schachtii [10]
  MIC50: inactive
Pratylenchus penetrans [11]
  MIC50: inactive
Meloidogyne incognita [12]
  MIC50: 900 µg/mL (≈ 2.73 mM)
Rhabditis sp. [13]
  MIC50: inactive
Pratylenchus penetrans [14]
  MIC50: inactive
Heterodera schachtii [15]
  MIC50: 77.4 mg/mL (≈ 235 mM)

## CO[C@H](C)[C@](O)(C(=O)OCC1=CCN2CC[C@H](O)[C@@H]12)C(C)C [HELIOTRINE]
Rhabditis sp. [1]
  MIC50: 100 µg/mL (≈ 0.319 mM)
Meloidogyne incognita [2]
  MIC50: 800 µg/mL (≈ 2.55 mM)
Pratylenchus penetrans [3]
  MIC50: 3300 µg/mL (≈ 10.5 mM)
Rhabditis sp. [4]
  Activity: 0%
Heterodera schachtii [5]
  MIC50: inactive
Rhabditis sp. [6]
  Activity: Active
Rhabditis sp. [7]
  Activity: 58%
Rhabditis sp. [8]
  Activity: 32%
Meloidogyne incognita [9]
  MIC50: 57.9 mg/mL (≈ 185 mM)
Heterodera schachtii [10]
  MIC50: 1100 µg/mL (≈ 3.51 mM)
Pratylenchus penetrans [11]
  MIC50: 49.8 mg/mL (≈ 159 mM)
Meloidogyne incognita [12]
  MIC50: 300 µg/mL (≈ 0.957 mM)
Rhabditis sp. [13]
  MIC50: inactive
Pratylenchus penetrans [14]
  MIC50: 4800 µg/mL (≈ 15.3 mM)
Rhabditis sp. [16]
  Activity: Active
Heterodera schachtii [15]
  MIC50: 2.1 mg/mL (≈ 6.7 mM)

## C/C=C(/C)C(=O)O[C@H]1CC[N+]2([O-])CC=C(COC(=O)[C@](O)(C(C)C)[C@@H](C)OC)[C@H]12 (some centres not stated) [LASIOCARPINE N-OXIDE]
Meloidogyne incognita [2]
  MIC50: inactive
Heterodera schachtii [5]
  MIC50: inactive
Meloidogyne incognita [9]
  MIC50: inactive
Heterodera schachtii [10]
  MIC50: inactive
Meloidogyne incognita [12]
  MIC50: 84400 µg/mL (≈ 205 mM)
Heterodera schachtii [15]
  MIC50: inactive
